In brackets after ≈: the same amount, converted by molar mass. Where two headings read alike, the source gives them in different places.
Key:
viruses = conditions: background art; cited from earlier work
[1] = system: proteinaceous components of the plasma; conditions: background art; cited from earlier work
DNA = conditions: background art; cited from earlier work
[2] = background art; cited from earlier work
factor VIII = conditions: background art; cited from earlier work
Anti-HBsAg = test: Plasma protein functional activity: Anti-HBsAg titer; assay type: biochemical; conditions: human plasma, 10 μm, 6 hours, 24° C.
[3] = Solubility in aqueous media / water; assay type: physicochemical
[4] = system: washed human red blood cells; test: Red cell structural and functional integrity; conditions: conditions of Example 2
selected plasma proteins = test: Functional activity of selected plasma proteins, overall; assay type: biochemical; conditions: human plasma, 10 μm, 6 hours, 24° C.
VSV [5] = test: microbe, parasite or virus in culture; assay type: cell-based, vesicular stomatitis virus; conditions: for log reduction at 10 µM: Vesicular stomatitis virus, 6 h
VSV [6] = assay type: cell-based, vesicular stomatitis virus
Factor IX = test: Plasma protein functional activity: Factor IX; assay type: biochemical; conditions: human plasma, 10 μm, 6 hours, 24° C.
[7] = Hydrolysis in aqueous medium; assay type: physicochemical; conditions: iscove's medium 10% fbs; Iscove's medium containing 10% fetal bovine serum
Fibrinogen = test: Plasma protein functional activity: fibrinogen clottability; assay type: biochemical; conditions: human plasma, 10 μm, 6 hours, 24° C.
Haptoglobin = test: Plasma protein: haptoglobin; assay type: biochemical; conditions: human plasma, 10 μm, 6 hours, 24° C.
[8] = system: Vesicular stomatitis virus (VSV); assay type: cell-based
AHF = test: Plasma protein functional activity: AHF; assay type: biochemical; conditions: human plasma, 10 μm, 6 hours, 24° C.
VSV [9] = test: microbe, parasite or virus in culture; assay type: cell-based; conditions: Vesicular stomatitis virus, A549, read-out: virus kill (cell-associated VSV)

## O=CCCCC=O [glutaraldehyde]
viruses
  viral inactivation and effect on cells (in words): inactivates viral infectivity, but fixes cells
[1]
  denaturation of plasma proteins: denatured the valuable proteinaceous components of the plasma

## Nc1ccc2cc3ccc(N)cc3nc2c1 [proflavin]
DNA
  binding to DNA: bind extremely well to DNA
[2]
  water solubility (in words): water soluble

## OCl [sodium hypochlorite]
[1]
  denaturation of plasma proteins: denatured the valuable proteinaceous components of the plasma

## O=C1CCO1 [Beta-propiolactone, beta-propiolactone]
[1]
  denaturation of plasma proteins: substantially denaturate valuable plasma proteins
Factor VIII
  loss of factor VIII content of plasma: more than half of the factor VIII content of plasma is lost

## CN(C)c1ccc2cc3ccc(N(C)C)cc3nc2c1 [acridine orange]
DNA
  binding to DNA: bind extremely well to DNA
[2]
  water solubility (in words): water soluble

## C=O [formaldehyde]
[1]
  denaturation of plasma proteins: denatured the valuable proteinaceous components of the plasma

## O[C@H]1[C@H]2O[C@H]2c2c(cc3ccc4cccc5ccc2c3c45)[C@@H]1O (relative stereo) [BAPDE, trans-7,8-dihydroxy [anti] 9,10 epoxy-7,8,9,10-tetrahydro benzo[a]pyrene]
Anti-HBsAg
  Anti-HBsAg Recovery (%): 110%
Anti-HBsAg; no treatment 0.50
  Anti-HBsAg following treatment with BAPDE: 0.55 titer
[3]
  solubility: 1 to 10 µM (≈ 0.302 to 3.02 µg/mL)
[4]
  2,3 diphosphoglycerate levels: within the normal range
  ATP levels: within the normal range
  Red cell structural and functional integrity: not compromised
  hemoglobin content: within the normal range
  osmotic fragility: within the normal range
Selected plasma proteins
  loss of protein functional activity (in words): without significant loss of protein functional activity
VSV [5]
  VSV Infectivity following treatment with BAPDE: < -0.5
VSV [5]; read-out: virus inactivation
  log reduction at 10 µM: > 4.5
VSV [5]; read-out: VSV Infectivity change: log10 Kill
  log reduction at 10 µM: > 4.6
VSV [6]
  VSV inactivation in the presence of red cells (in words): reduced in the presence of red cells
  virus titer reduction: at least 3 logs
Factor IX
  Factor IX Recovery (%): 100%
Factor IX; no treatment 0.9
  Factor IX following treatment with BAPDE: 0.9 units/ml
[7]
  half-life: ~30 min
Fibrinogen
  Fibrinogen clottability Recovery (%): 100%
Fibrinogen; no treatment clottable
  Fibrinogen clottability following treatment with BAPDE: clottable
A549 cells
  toxicity to A549 cells: Neither BAPDE nor the solvent in which it was dissolved (e.g., tetrahydroturan) were toxic to A549 cells
Haptoglobin
  Haptoglobin Recovery (%): 97%
Haptoglobin; no treatment 175
  Haptoglobin following treatment with BAPDE: 170 mg/dL
[8]
  virus inactivated: > 5 logs
AHF
  AHF Recovery (%): 79%
AHF; no treatment 0.70
  AHF following treatment with BAPDE: 0.55 units/ml
VSV [9]
  log reduction at 3 µM: > 5.5

Reference: US5055485A, “Inactivation of viruses in cell- and protein-containing compositions using aryl diol epoxides” (New York Blood Center, Inc., priority 1988, dated 1991)
